{"source": "patent US20230109839A1", "about": "“THERAPEUTIC AGENT FOR TAUOPATHIES” (SUMITOMO PHARMA CO., LTD., priority 2020, published 2023)", "key": {"[1]": {"system": "phosphorylated tau oligomer", "assay": "Evaluation of phosphorylated tau oligomers in brain of APP-Tg mice, Western blotting (Test 4)", "format": "in vivo, mouse", "settings": "for reducing effect of tau oligomer: with food for 7-10 days, ABT 1 mg/g-food depending on the compound, brain, anti-oligomerized tau antibody TOMA-1"}, "[2]": {"system": "intracerebral tau aggregate accumulation", "assay": "Intracerebral tau aggregate accumulation in rTg4510 mice, tau PET with [18F] PM-PBB3, SUVR (Test 5)", "format": "in vivo, mouse", "description": "Test 5: Evaluation of Intracerebral Tau Aggregate Accumulation and Cerebral Atrophy Using rTg4510 Mice\nThis test is a test to evaluate the effects of the compounds on intracerebral tau aggregate accumulation and cerebral atrophy. The rTg4510 mice overexpress the human-type FTDP-17 mutant tau in the forebrain, and month-age-dependent intracerebral tau aggregate accumulation and cerebral atrophy are observed. The rTg4510 mice used herein were produced by mating Tg (tauP301L) 4510 mice (Stock No. 015815) and CaMKII-tTA mice (Stock No. 007004) purchased from The Jackson Laboratory and breeding them.\nThe test compound was administered as a mixed diet to rTg4510 mice from the age of 4 months, and PET scan and MRI were performed at the ages of 4, 6 and 8 months to quantitatively evaluate the amount of the intracerebral tau aggregate accumulated and cerebral atrophy. The PET scan was performed using MicroPET Focus 220 of Siemens Medical Solutions (0.851 mm thick (intercenter) 95 slices, 19.0 cm axial field of view (FOV), and 7.6 cm intra-section FOV). The administration of radioactive compound [^18F] PM-PBB3 (precursor obtained from Aprinoia) and the PET scan were performed in dimly lit after the mice was treated with 1.5% isoflurane anesthesia to avoid […] of the radioactive compound. The emission scan was performed for 60 minutes immediately after the intravenous administration of [^18F] PM-PBB3 (1 mCi) (3D list mode, energy window: 350-750 keV). Then, the list mode data sorted into 3D synograms were converted into 2D synograms by Fourier-rebinding (frames: 4×1, 8×2 and 8×5 minutes). The dynamic image for 60 minutes after the administration of [^18F] PM-PBB3 was reconstructed by a filter-corrected back projection with a 0.5 mm Hanning filter. Regions of interest (ROI) were set in multiple brain regions using PMOD image analysis software (PMOD Technology) with reference to the MRI templates and the PET reconstructed images. Tau aggregate accumulation was evaluated by calculating SUVR (Standardized uptake value ratio) with the cerebellum as a reference region, based on the added average of dynamic images from 40 minutes to 60 minutes."}, "[3]": {"settings": "4 month old, 5.8 mg/g-food from the age of 4 months"}, "[4]": {"settings": "6 month old, 5.8 mg/g-food from the age of 4 months"}, "[5]": {"settings": "8 month old, 5.8 mg/g-food from the age of 4 months"}, "[6]": {"settings": "4 month old, 3 mg/g-food, with ABT 1 mg/g-food"}, "[7]": {"settings": "6 month old, 3 mg/g-food, with ABT 1 mg/g-food"}, "[8]": {"settings": "8 month old, 3 mg/g-food, with ABT 1 mg/g-food"}}, "note": "“Also recorded” adds a separate entry of the source.", "data": [{"smiles": "CC1CCN(c2ccc(=O)n(CC(=O)Nc3ccc(C#N)cc3)n2)CC1", "note": "[Example 1, N-(4-Cyanophenyl)-2-[3-(4-methylpiperidin-1-yl)-6-oxopyridazin-1(6H)-yl]acetamide]", "values": [{"measurement": "Reducing effect of phosphorylated tau oligomer", "setting": "[1]; dose 1.9 mg/g-food, 7-10 days, without ABT", "value": "+ + +"}, {"measurement": "Reducing effect of phosphorylated tau oligomer", "setting": "[1]; dose 5.8 mg/g-food, 7-10 days, without ABT", "value": "+ + + +"}, {"measurement": "reducing effect of tau oligomer", "setting": "[1]", "value": "some reducing effect of tau oligomer; also recorded: strong reducing effect of tau oligomer"}, {"measurement": "SUVR(cerebellum ratio) cerebral neocortex", "setting": "[2]; [3]", "value": "0.986 ± 0.009"}, {"measurement": "SUVR(cerebellum ratio) hippocampus", "setting": "[2]; [3]", "value": "1.078 ± 0.009"}, {"measurement": "SUVR(cerebellum ratio) cerebral neocortex", "setting": "[2]; [4]", "value": "1.098 ± 0.013"}, {"measurement": "SUVR(cerebellum ratio) hippocampus", "setting": "[2]; [4]", "value": "1.182 ± 0.016"}, {"measurement": "SUVR(cerebellum ratio) cerebral neocortex", "setting": "[2]; [5]", "value": "1.184 ± 0.017"}, {"measurement": "SUVR(cerebellum ratio) hippocampus", "setting": "[2]; [5]", "value": "1.284 ± 0.024"}, {"measurement": "age-dependent increase in SUVR in the cerebral neocortex and hippocampus (FIG. 3)", "setting": "[2]; diet 5.8 mg/g-food from the age of 4 months", "value": "statistically significantly suppressed"}, {"measurement": "increase in tau PET tracer accumulation in each region with aging (SUVR average images, FIG. 1)", "setting": "[2]; diet 5.8 mg/g-food from the age of 4 months, ages 4, 6 and 8 months, vs non-administration group", "value": "significantly suppressed"}]}, {"smiles": "CC1CC=C(c2cnc3cnn(CC(=O)Nc4ccn5ncnc5c4)c3n2)CC1", "note": "(stereo not shown) [Example 577, 2-[6-(4-methylcyclohex-1-en-1-yl)-1H-pyrazolo[3,4-b]pyrazin-1-yl]-N-([1,2,4]triazolo[1,5-a]pyridin-7-yl)acetamide]", "values": [{"measurement": "inhibition in vivo at 2.2 mg/g-food", "setting": "[1]; Mus musculus, po, dose 2.2 mg/g-food, 7-10 days, without ABT, read-out: Reducing effect of phosphorylated tau oligomer", "value": "0 to 25", "unit": "%"}, {"measurement": "inhibition in vivo at 6.6 mg/g-food", "setting": "[1]; Mus musculus, po, dose 6.6 mg/g-food, 7-10 days, without ABT, read-out: Reducing effect of phosphorylated tau oligomer", "value": "50 to 75", "unit": "%"}, {"measurement": "reducing effect of tau oligomer", "setting": "[1]", "value": "some reducing effect of tau oligomer; also recorded: strong reducing effect of tau oligomer"}, {"measurement": "individuals that did not show any increase in the SUVR from the age of 6 months to the age of 8 months", "setting": "[2]; mixed diet 0.7 mg/g-hood administration group", "value": "3 out of 5"}, {"measurement": "individuals that did not show any increase in the SUVR from the age of 6 months to the age of 8 months", "setting": "[2]; mixed diet 6.6 mg/g-hood administration group", "value": "3 out of 6"}, {"measurement": "accumulation of tau aggregates (suggested from SUVR)", "setting": "[2]; mixed diet 0.7 and 6.6 mg/g-food", "value": "suppressed"}]}, {"smiles": "CN(c1ncc2cnn(CC(=O)Nc3ccn4ncnc4c3)c2n1)C1CCCC1", "note": "[Example 795, 2-{6-[cyclopentyl(methyl)amino]-1H-pyrazolo[3,4-d]pyrimidin-1-yl}-N-([1,2,4]triazolo[1,5-a]pyridin-7-yl)acetamide]", "values": [{"measurement": "Reducing effect of phosphorylated tau oligomer", "setting": "[1]; dose 0.2 mg/g-food, 7-10 days, with ABT 1 mg/g-food", "value": "+ (0-25%: +)"}, {"measurement": "Reducing effect of phosphorylated tau oligomer", "setting": "[1]; dose 2 mg/g-food, 7-10 days, with ABT 1 mg/g-food", "value": "+++ (50-75%: +++)"}, {"measurement": "reducing effect of tau oligomer", "setting": "[1]", "value": "some reducing effect of tau oligomer; also recorded: strong reducing effect of tau oligomer"}, {"measurement": "SUVR(cerebellum ratio) cerebral neocortex", "setting": "[2]; [6]", "value": "1.023 ± 0.009"}, {"measurement": "SUVR(cerebellum ratio) hippocampus", "setting": "[2]; [6]", "value": "1.134 ± 0.042"}, {"measurement": "SUVR(cerebellum ratio) cerebral neocortex", "setting": "[2]; [7]", "value": "1.149 ± 0.031"}, {"measurement": "SUVR(cerebellum ratio) hippocampus", "setting": "[2]; [7]", "value": "1.308 ± 0.044"}, {"measurement": "SUVR(cerebellum ratio) cerebral neocortex", "setting": "[2]; [8]", "value": "1.268 ± 0.036"}, {"measurement": "SUVR(cerebellum ratio) hippocampus", "setting": "[2]; [8]", "value": "1.419 ± 0.048"}, {"measurement": "age-dependent increase in SUVR in the cerebral neocortex and hippocampus (FIG. 5)", "setting": "[2]; mixed diet 3 mg/g-food with ABT 1 mg/g-food", "value": "tended to be suppressed"}, {"measurement": "increase in PET tracer accumulation in each brain region with aging (average SUVR images, FIG. 4)", "setting": "[2]; mixed diet 3 mg/g-food with ABT 1 mg/g-food, ages 4, 6 and 8 months", "value": "suppressed"}]}]}
